By IC50 is commonly meant the midpoint of a concentration-inhibition curve. As a reminder, the DC50 is the concentration giving 50% degradation.

Read-outs that look alike come from different tables or passages of the source.

Assay [1] addresses Full length wild-type cereblon CRBN (Homo sapiens (Human), UniProt Q96SW2). In words: Fluorescence polarization (FP) assay, cereblon binding. The protocol: Compound activity was monitored in a fluorescence polarization (FP) homogeneous assay using 1-[5-({2-[2-(2-{[2-(2,6-dioxopiperidin-3-yl)-1,3-dioxo-2,3-dihydro-1H-isoindol-4-yl]oxy}acetamido)ethoxy]ethyl}carbamoyl)pentyl]-3,3-dimethyl-2-[(1E,3E)-5-[(2E)-1,3,3-trimethyl-5-sulfo-2,3-dihydro-1H-indol-2-ylidene]penta-1,3-dien-1-yl]-3H-indol-1-ium-5-sulfonate as a fluorescent probe. Unless otherwise stated, all reagents were purchased from Sigma Aldrich. Enzymatic reactions were conducted in Perkin-Elmer Black 384 well ProxiPlate Plus (catalogue no. 6008269) in 10 sL total volume. Full length wild-type cereblon CRBN (80.0 nM, 10 sL) was incubated in assay buffer containing 20 mM HEPES (pH 8.0), […], 0.5 mM TCEP and 0.05% Tween 20 in the presence or absence of compound (300 nL). Inhibitors were stored as 10 mM DMSO stocks in an inert environment (low humidity, dark, low oxygen, room temperature) using the Storage Pod System.
Compounds and DMSO were dispensed using the Echo E5XX (Labcyte Inc. USA) to give concentrations from 300 to 0.937 or 3000 to 9.3 nM in a 12 data point curve. […] Following incubation at room temperature for 30 min, the assay was initiated by dispensing the probe to a final concentration of 5 nM (2.5 nL of a 20 μM stock) using the Echo E5XX. FP was measured after a period of 12 hours using a Pherastar plate reader (BMG Labtech, Germany) exciting at 590 nm and measuring the amount of parallel and perpendicular light at 675 nm. The FP signal was subsequently normalized to the no-compound control (i.e., DMSO). Analysis and IC50 values were derived using Dotmatics (Dotmatics UK) software.

Assay [2] addresses GSPT1 (Homo sapiens (Human), UniProt P15170+Q96SW2). Description: Immunofluorescence assay for GSPT1 degradation in CAL-Si cells. The assay is classed as cell-based. As to conditions: CAL-Si cells. The protocol: The compounds were tested in an immunofluorescence assay for their activity to bind to degrade GSPT1. CAL-Si cells were purchased from DSMZ (cat. Number ACC302), sub-cultured in 90% Dulbecco's MEM (4.5 g/L glucose, Gibco 11965)+10% heat inactivated FBS (BioConcept, 2-01F136I) and incubated at 37° C., 5% CO2. For the assay, imaging microtiterplate Cell Carrier 96 Ultra (Perkin Elmer 6055302) were pre-coated with Fibronectin (Sigma F085, 30 μl at 0.2 μg/ml) in PBS (100 μl, Gibco 14190) for 45 min at room temperature, rinsed with PBS and CAL-Si cells (30K cells/well) were plated and let to adhere overnight. Cells were treated with compounds typically using a serial dilution ranging from 30 μM to 0.1 nM for 6 hours. Compounds were stored at 10 mM DMSO stocks. Vehicle (DMSO), positive (CC-885, 10 μM) and rescue controls (positive control plus 0.2 μM bortezomib) were also included at this stage. Cells were subsequently rinsed with PBS and fixed in 10% Formalin solution (50 μl, Sigma HT5011)) for 20 mins at room temperature. Following three consecutive PBS washes (100 μl), cells were permeabilized in 0.1% Triton X-100 in PBS (Sigma 93443, 50 μl) for 15 mins at room temperature. Following three further PBS washes, 50 μl blocking buffer (1% BSA, Sigma A4503, in PBS) was added for 45 min for signal-to-noise reduction.
Primary antibody (human GSPT1, Sigma HPA052488) was diluted in blocking buffer (dil.1/300, 35 μl/well) and incubated with the cells overnight at 4° C. After three PBS washes, Alexa-fluor 488 coupled secondary antibodies (Invitrogen, A32731, dil.1/1000), Alexa-fluor 647-Phalloïdin (Invitrogen, A22287, dil.1/200) and DAPI (Thermo, #62248, dil.1/1000) were diluted in blocking buffer and incubated with the samples for 2 hours at room temperature. After three final PBS washes, samples were conserved in 100 μl PBS in the dark, until measurement. Image acquisition was performed on the Operetta High-Content Imager (Perkin-Elmer). Fluorescence intensity of Alexa-Fluor 488 (GSPT1), Alexa-Fluor 647 (Actin) and DAPI (Nucleus) were measured. For the determination of GSPT1 DC50 values, a custom algorithm implemented in the PerkinElmer image analysis software Harmony-Acapella® was developed. After user-defined setting of adjustment parameters, the analysis was run identically without human intervention for all image fields. DAPI staining of the nuclei was used to determine the location of cells using standard nuclei detection modules. Segmentation artifacts were removed by threshold-based filters for area, roundness and intensity. The outline of the cells was determined analogously from the sum of the normalized, smoothed DAPI and Actin channel, starting from each nucleus. The Alexa-Fluor 488 (GSPT1) signal intensity in each cell was finally measured, in order to obtain a Mean intensity per cell. GSPT1 degradation (DC50) was calculated after normalization to controls and data import in CDD vault Database, using non-linear regression.

Setting [3] is: cereblon binding, bound, read-out: IC50 value.
Where [4] appears, read: wild-type CRBN 80.0 nM, probe 5 nM, FP measured after 12 hours, read-out: rFP IC50.
Setting [5] is: treated 6 hours, read-out: Code, activity for GSPT1 degradation (DC50).
Setting [6] is: compounds with code A, read-out: DC50 value code.

Chain of GSPT1 (P15170 whole entry): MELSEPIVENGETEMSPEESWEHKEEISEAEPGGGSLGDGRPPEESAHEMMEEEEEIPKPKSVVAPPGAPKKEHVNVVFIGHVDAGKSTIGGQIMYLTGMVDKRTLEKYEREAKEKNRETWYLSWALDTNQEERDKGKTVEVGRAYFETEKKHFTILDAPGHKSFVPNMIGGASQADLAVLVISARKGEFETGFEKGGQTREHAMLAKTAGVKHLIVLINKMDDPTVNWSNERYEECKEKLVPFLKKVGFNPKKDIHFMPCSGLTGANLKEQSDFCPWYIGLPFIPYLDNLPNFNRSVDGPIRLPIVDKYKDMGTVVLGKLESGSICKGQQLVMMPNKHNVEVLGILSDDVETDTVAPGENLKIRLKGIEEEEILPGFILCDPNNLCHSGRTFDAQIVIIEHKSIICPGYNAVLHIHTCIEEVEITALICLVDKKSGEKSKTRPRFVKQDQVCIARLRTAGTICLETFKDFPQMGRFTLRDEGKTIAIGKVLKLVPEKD
Chain of GSPT1 (Q96SW2 whole entry): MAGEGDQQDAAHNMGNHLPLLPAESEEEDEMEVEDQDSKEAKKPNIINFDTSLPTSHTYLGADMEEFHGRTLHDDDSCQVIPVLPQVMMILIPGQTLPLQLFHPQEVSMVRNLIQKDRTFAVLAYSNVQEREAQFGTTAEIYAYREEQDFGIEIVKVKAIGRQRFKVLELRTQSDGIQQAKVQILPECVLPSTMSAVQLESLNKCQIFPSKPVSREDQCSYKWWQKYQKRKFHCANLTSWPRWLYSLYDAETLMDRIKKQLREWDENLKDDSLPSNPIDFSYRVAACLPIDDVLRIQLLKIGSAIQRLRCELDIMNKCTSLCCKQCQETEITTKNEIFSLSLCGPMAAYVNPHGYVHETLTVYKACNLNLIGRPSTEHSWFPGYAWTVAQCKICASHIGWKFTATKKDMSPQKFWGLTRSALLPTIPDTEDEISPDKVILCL
Chain of GSPT1 (Q16531 whole entry partner): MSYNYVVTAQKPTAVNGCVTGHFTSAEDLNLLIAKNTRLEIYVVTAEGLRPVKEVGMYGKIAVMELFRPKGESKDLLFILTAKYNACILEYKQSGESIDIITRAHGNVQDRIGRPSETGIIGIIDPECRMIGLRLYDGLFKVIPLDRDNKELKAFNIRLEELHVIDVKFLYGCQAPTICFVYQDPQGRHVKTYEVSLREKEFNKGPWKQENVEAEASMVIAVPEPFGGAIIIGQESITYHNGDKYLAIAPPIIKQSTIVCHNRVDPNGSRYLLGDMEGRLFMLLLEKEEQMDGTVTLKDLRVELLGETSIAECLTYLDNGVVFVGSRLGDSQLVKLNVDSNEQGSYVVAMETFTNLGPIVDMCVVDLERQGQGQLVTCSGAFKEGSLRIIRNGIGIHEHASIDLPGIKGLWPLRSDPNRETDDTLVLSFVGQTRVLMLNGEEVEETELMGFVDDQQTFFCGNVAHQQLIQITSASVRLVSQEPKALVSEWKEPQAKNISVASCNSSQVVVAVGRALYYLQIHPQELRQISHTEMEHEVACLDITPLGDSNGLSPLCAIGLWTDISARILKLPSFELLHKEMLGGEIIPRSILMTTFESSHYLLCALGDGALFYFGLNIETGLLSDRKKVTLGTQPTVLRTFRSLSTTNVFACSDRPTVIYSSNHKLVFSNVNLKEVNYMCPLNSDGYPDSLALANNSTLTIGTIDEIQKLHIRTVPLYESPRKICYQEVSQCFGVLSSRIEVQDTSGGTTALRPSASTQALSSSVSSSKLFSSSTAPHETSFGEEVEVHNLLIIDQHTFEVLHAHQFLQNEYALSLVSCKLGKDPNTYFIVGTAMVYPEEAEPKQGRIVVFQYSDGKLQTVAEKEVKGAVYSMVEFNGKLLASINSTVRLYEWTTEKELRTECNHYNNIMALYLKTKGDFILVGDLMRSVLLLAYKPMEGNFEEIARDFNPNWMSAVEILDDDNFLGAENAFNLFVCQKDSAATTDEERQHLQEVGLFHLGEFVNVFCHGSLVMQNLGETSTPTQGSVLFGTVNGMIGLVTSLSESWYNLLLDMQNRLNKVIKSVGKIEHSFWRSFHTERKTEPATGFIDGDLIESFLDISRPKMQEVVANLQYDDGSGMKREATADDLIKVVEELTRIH
Chain of Full length wild-type cereblon CRBN (Q96SW2 whole entry): as the sequence (Q96SW2 whole entry) above

Take `COc1cc(COC(=O)Nc2ccc(F)c(OC(F)F)c2)cc2c1CN(C1CCC(=O)NC1=O)C2=O` (centres unmarked) [Compound 46, (2-(2,6-dioxopiperidin-3-yl)-7-methoxy-3-oxoisoindolin-5-yl)methyl(3-(difluoromethoxy)-4-fluorophenyl)carbamate]: the values for the half-inhibitory concentration (IC50) in assay [1] (setting [3]) and in assay [1] (setting [4]) were < 600 nM and 600 to 1200 nM, respectively. Moreover, in assay [2] (setting [5]), the DC50 is 30 to 300 nM.
For the compound `O=C1CCC(N2Cc3c(F)cc(COC(=O)Nc4ccc(-c5ccccn5)cc4)cc3C2=O)C(=O)N1` (centres unmarked) [Compound 11, (2-(2,6-dioxopiperidin-3-yl)-7-fluoro-3-oxoisoindolin-5-yl)methyl (4-(pyridin-2-yl)phenyl)carbamate], the IC50 in assay [1] (setting [3]) was < 600 nM; in assay [1] (setting [4]), ≤ 600 nM. The DC50 in assay [2] (setting [6]) and in assay [2] (setting [5]) was < 30 nM in each case.
As for `COc1cc(COC(=O)Nc2ccc(-c3ccccc3C)nc2)cc2c1CN(C1CCC(=O)NC1=O)C2=O` (centres unmarked) [Compound 60, (2-(2,6-dioxopiperidin-3-yl)-7-methoxy-3-oxoisoindolin-5-yl)methyl (6-(o-tolyl)pyridin-3-yl)carbamate], the IC50 in assay [1] (setting [3]) was < 600 nM; in assay [1] (setting [4]) it was ≤ 600 nM. The half-maximal degradation concentration (DC50) in assay [2] (setting [6]) and in assay [2] (setting [5]) was < 30 nM throughout.
In the case of `COc1cc(COC(=O)Nc2ccc(-c3ccccc3)nc2)cc2c1CN(C1CCC(=O)NC1=O)C2=O` (centres unmarked) [Compound 45, (2-(2,6-dioxopiperidin-3-yl)-7-methoxy-3-oxoisoindolin-5-yl)methyl(6-phenylpyridin-3-yl)carbamate], the IC50 in assay [1] (setting [3]) is < 600 nM; in assay [1] (setting [4]) it was 600 to 1200 nM. Further, the DC50 in assay [2] (setting [6]) and in assay [2] (setting [5]) was < 30 nM throughout.
Consider `COc1cc(COC(=O)Nc2cccc(OC(F)F)c2)cc2c1CN(C1CCC(=O)NC1=O)C2=O` (centres unmarked) [Compound 53, (2-(2,6-dioxopiperidin-3-yl)-7-methoxy-3-oxoisoindolin-5-yl)methyl (3-(difluoromethoxy)phenyl)carbamate], for which the IC50 was < 600 nM in assay [1] (setting [3]) and ≤ 600 nM in assay [1] (setting [4]). The DC50 in assay [2] (setting [6]) and in assay [2] (setting [5]) was < 30 nM throughout.
`COc1cc(COC(=O)Nc2cc(-c3ccccc3)ccn2)cc2c1CN(C1CCC(=O)NC1=O)C2=O` (centres unmarked) [Compound 56, (2-(2,6-dioxopiperidin-3-yl)-7-methoxy-3-oxoisoindolin-5-yl)methyl (4-phenylpyridin-2-yl)carbamate]: the IC50 in assay [1] (setting [3]) is < 600 nM; in assay [1] (setting [4]) it was ≤ 600 nM. Besides, the DC50 in assay [2] (setting [6]) and in assay [2] (setting [5]) was < 30 nM each time.
Turning to `Cc1ccc(NC(=O)OCc2cc(C#N)c3c(c2)C(=O)N(C2CCC(=O)NC2=O)C3)cc1Cl` (centres unmarked) [Compound 2, (7-cyano-2-(2,6-dioxopiperidin-3-yl)-3-oxoisoindolin-5-yl)methyl (3-chloro-4-methylphenyl)carbamate], the IC50 in assay [1] (setting [4]) was > 1900 nM. The DC50 in assay [2] (setting [5]) is 30 to 300 nM.
In the case of `COc1cc(COC(=O)Nc2cc(C)cc(C)c2)cc2c1CN(C1CCC(=O)NC1=O)C2=O` (centres unmarked) [Compound 52, (2-(2,6-dioxopiperidin-3-yl)-7-methoxy-3-oxoisoindolin-5-yl)methyl (3,5-dimethylphenyl)carbamate], the IC50 in assay [1] (setting [3]) is < 600 nM; in assay [1] (setting [4]), ≤ 600 nM. In addition, the DC50 in assay [2] (setting [5]) is 30 to 300 nM.
For the compound `COc1cc(COC(=O)Nc2cc(Cl)cc(OC(F)F)c2)cc2c1CN(C1CCC(=O)NC1=O)C2=O` (centres unmarked) [Compound 49, (2-(2,6-dioxopiperidin-3-yl)-7-methoxy-3-oxoisoindolin-5-yl)methyl (3-chloro-5-(difluoromethoxy)phenyl)carbamate], the IC50 in assay [1] (setting [3]) was < 600 nM; in assay [1] (setting [4]), 600 to 1200 nM. The DC50 in assay [2] (setting [6]) and in assay [2] (setting [5]) was < 30 nM in each case.
As for `COc1cc(COC(=O)Nc2ccc(C)c(Cl)c2)cc2c1CN(C1CCC(=O)NC1=O)C2=O` (centres unmarked) [Compound 5, (2-(2,6-dioxopiperidin-3-yl)-7-methoxy-3-oxoisoindolin-5-yl)methyl(3-chloro-4-methylphenyl)carbamate], the results for the 50% inhibitory concentration (IC50) in assay [1] (setting [3]) and in assay [1] (setting [4]) were < 600 nM and 600 to 1200 nM, respectively. In addition, the DC50 in assay [2] (setting [6]) and in assay [2] (setting [5]) was < 30 nM each time.
Take `Cc1cc(C)cc(NC(=O)OCc2cc(F)c3c(c2)C(=O)N(C2CCC(=O)NC2=O)C3)c1` (centres unmarked) [Compound 31, (2-(2,6-dioxopiperidin-3-yl)-7-fluoro-3-oxoisoindolin-5-yl)methyl (3,5-dimethylphenyl)carbamate]: the half-maximal inhibitory concentration (IC50) in assay [1] (setting [4]) was > 1900 nM. The DC50 in assay [2] (setting [5]) is 30 to 300 nM.
For `O=C1CCC(N2Cc3c(F)cc(COC(=O)Nc4cc(Cl)cc(OC(F)F)c4)cc3C2=O)C(=O)N1` (centres unmarked) [Compound 34, (2-(2,6-dioxopiperidin-3-yl)-7-fluoro-3-oxoisoindolin-5-yl)methyl(3-chloro-5-(difluoromethoxy)phenyl)carbamate], in that order: > 1900 nM and 30 to 300 nM.
On to `O=C1CCC(N2Cc3c(F)cc(COC(=O)Nc4cccc(OC(F)F)c4)cc3C2=O)C(=O)N1` (centres unmarked) [Compound 26, (2-(2,6-dioxopiperidin-3-yl)-7-fluoro-3-oxoisoindolin-5-yl)methyl(3-(difluoromethoxy)phenyl)carbamate], for which the IC50 was < 600 nM in assay [1] (setting [3]) and 1200 to 1900 nM in assay [1] (setting [4]). The DC50 in assay [2] (setting [5]) lay within 30 to 300 nM.
Consider `COc1cc(COC(=O)Nc2ccc(C(C)(C)C)cc2)cc2c1CN(C1CCC(=O)NC1=O)C2=O` (centres unmarked) [Compound 43, (2-(2,6-dioxopiperidin-3-yl)-7-methoxy-3-oxoisoindolin-5-yl)methyl (4-(tert-butyl)phenyl)carbamate], for which the values for the IC50 in assay [1] (setting [3]) and in assay [1] (setting [4]) were < 600 nM and 600 to 1200 nM, respectively. The 50% degradation concentration (DC50) in assay [2] (setting [6]) and in assay [2] (setting [5]) was < 30 nM each time.
Consider `COc1cc(COC(=O)Nc2cnc(-c3ccccc3)c(C)c2)cc2c1CN(C1CCC(=O)NC1=O)C2=O` (centres unmarked) [Compound 59, (2-(2,6-dioxopiperidin-3-yl)-7-methoxy-3-oxoisoindolin-5-yl)methyl(5-methyl-6-phenylpyridin-3-yl)carbamate], for which the results for the IC50 in assay [1] (setting [3]) and in assay [1] (setting [4]) were < 600 nM and ≤ 600 nM, respectively. Besides, the DC50 in assay [2] (setting [6]) and in assay [2] (setting [5]) was < 30 nM each time.
`O=C1CCC(N2Cc3c(F)cc(COC(=O)Nc4ccc(F)c(OC(F)F)c4)cc3C2=O)C(=O)N1` (centres unmarked) [Compound 7, (2-(2,6-dioxopiperidin-3-yl)-7-fluoro-3-oxoisoindolin-5-yl)methyl(3-(difluoromethoxy)-4-fluorophenyl)carbamate]: the values for the IC50 in assay [1] (setting [3]) and in assay [1] (setting [4]) were < 600 nM and 1200 to 1900 nM, respectively. Further, in assay [2] (setting [5]), the DC50 lay in the range of 30 to 300 nM.
Turning to `CC1(c2ccc(NC(=O)OCc3cc(F)c4c(c3)C(=O)N(C3CCC(=O)NC3=O)C4)cc2)CC1` (centres unmarked) [Compound 13, (2-(2,6-dioxopiperidin-3-yl)-7-fluoro-3-oxoisoindolin-5-yl)methyl (4-(1-methylcyclopropyl)phenyl)carbamate], in assay [1] (setting [4]), the IC50 is > 1900 nM. Moreover, the DC50 in assay [2] (setting [5]) was 30 to 300 nM.
